# Results from patent US20020103141A1, “Antiangiogenic combination therapy for the treatment of cancer” (priority 1998, published 2002).
# Structures can show the parent of a compound that is named as a salt. Where two headings read alike, the source gives them in different places.
# Experiments:
# [1] = cited from earlier work
# Lewis Lung tumor cells = assay: Lewis Lung Model: tumor volume and lung metastasis; type: in vivo, Mice
# Source text: The data is expressed as the mean +/−SEM. […] Analysis of lung metastasis is done in all the animals by counting metastasis in a stereomicroscope and by histochemical analysis of consecutive lung sections.
# COX-2 = target: T1, COX-2 (UniProt P35354); assay: Fast assay for COX-2 activity (PGE2 ELISA); conditions: read-out: COX-2* IC50, recombinant COX-2, PGE2 ELISA, 10 min pre-incubation at 25° C.
# T1 sequence (P35354 1-604): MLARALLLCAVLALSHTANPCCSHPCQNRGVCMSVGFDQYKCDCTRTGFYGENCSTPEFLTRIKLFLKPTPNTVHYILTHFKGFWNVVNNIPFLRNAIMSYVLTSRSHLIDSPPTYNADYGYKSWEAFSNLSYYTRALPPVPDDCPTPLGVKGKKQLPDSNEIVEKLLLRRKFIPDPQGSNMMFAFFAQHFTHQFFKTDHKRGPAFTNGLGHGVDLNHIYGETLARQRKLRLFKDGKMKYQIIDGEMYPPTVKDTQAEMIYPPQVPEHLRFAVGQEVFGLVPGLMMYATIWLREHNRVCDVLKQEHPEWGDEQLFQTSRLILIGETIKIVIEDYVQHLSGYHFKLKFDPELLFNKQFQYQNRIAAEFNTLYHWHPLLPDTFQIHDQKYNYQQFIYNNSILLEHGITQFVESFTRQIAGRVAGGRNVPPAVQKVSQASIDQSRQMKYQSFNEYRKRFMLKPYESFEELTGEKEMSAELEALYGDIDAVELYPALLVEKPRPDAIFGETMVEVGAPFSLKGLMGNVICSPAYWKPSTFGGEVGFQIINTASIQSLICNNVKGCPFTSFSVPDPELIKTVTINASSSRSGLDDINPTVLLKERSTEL
# COX-1 = COX-1 (UniProt P23219); assay: Fast assay for COX-1 activity (PGE2 ELISA); conditions: read-out: COX-1* IC50, recombinant COX-1, PGE2 ELISA, 10 min pre-incubation at 25° C.
# [2] = cited from earlier work; remark: listed apart in the source
# [3] = cited from earlier work; remark: listed apart in the source
# [4] = doses of 15 mg/kg/day, biliary cirrhosis trials; cited from earlier work
IC50 (COX-1) [µM],melting point [°C],Compound,further results
43,–,"O=C(O)C1=Cc2cc(Cl)ccc2OC1C(F)(F)F (stereo not shown) [Example 1, 6-Chloro-2-trifluoromethyl-2H-1-benzopyran-3-carboxylic acid]",IC50 (COX-2): 0.7 µM
18.8,–,"O=C(O)C1=Cc2cc(OC(F)(F)F)ccc2OC1C(F)(F)F (stereo not shown) [Example 5, 6-Trifluoromethoxy-2-trifluoromethyl-2H-1-benzopyran-3-carboxylic acid]",–
1,229.9 to 230.9,"Cc1c(Cl)cc2c(c1Cl)OC(C(F)(F)F)C(C(=O)O)=C2 (stereo not shown) [Example 9, 6,8-Dichloro-7-methyl-2-(trifluoromethyl)-2H-1-benzopyran-3-carboxylic acid]",IC50 (COX-2): 0.9 µM
> 500,187.8 to 188.8,"O=C(O)C1=Cc2cc(Cl)ccc2NC1C(F)(F)F (stereo not shown) [Example 12, 6-Chloro-1,2-dihydro-2-(trifluoromethyl)-3-quinolinecarboxylic acid]",IC50 (COX-2): 0.6 µM
> 100,173 to 176,"O=C(O)C1=Cc2cc(Cl)ccc2N[C@@H]1C(F)(F)F [Example 13, (S)-6-chloro-1,2-dihydro-2-(trifluoromethyl)-3-quinolinecarboxylic acid]",IC50 (COX-2): 0.2 µM
–,211.5 to 213.5,"O=C(O)C1=Cc2c(ccc(Cl)c2Cl)OC1C(F)(F)F (stereo not shown) [Example 17, 5,6-Dichloro-2-(trifluoromethyl)-2H-1-benzopyran-3-carboxylic acid]",–
–,236.2 to 239.3,"O=C(O)C1=Cc2c(cc(Cl)c(Cl)c2Cl)OC1C(F)(F)F (stereo not shown) [Example 19, 5,6,7-Trichloro-2-(trifluoromethyl)-2H-1-benzopyran-3-carboxylic acid]",–
–,222 to 225.3,"O=C(O)C1=Cc2cc(Cl)c(Cl)c(Cl)c2OC1C(F)(F)F (stereo not shown) [Example 20, 6,7,8-Trichloro-2-(trifluoromethyl)-2H-1-benzopyran-3-carboxylic acid]",–
> 100,188 to 192,"O=C(O)C1=Cc2cc(I)ccc2NC1C(F)(F)F (stereo not shown) [Example 21, 6-Iodo-1,2-dihydro-2-(trifluoromethyl)-3-quinolinecarboxylic acid]",IC50 (COX-2): 0.8 µM
> 100,185 to 186,"O=C(O)C1=Cc2cc(Br)ccc2NC1C(F)(F)F (stereo not shown) [Example 22, 6-Bromo-1,2-dihydro-2-(trifluoromethyl)-3-quinolinecarboxylic acid]",IC50 (COX-2): 0.4 µM

# The remaining lines, values behind:
Compound,IC50 (COX-1) [µM],melting point [°C],further results
"CC[C@@]1(O)C(=O)OCc2c1cc1n(c2=O)Cc2cc3c(N)cccc3nc2-1 [9-aminocamptothecin, 1H-Pyrano[3′,4′:6,7]indolizino[1,2-b]quinoline-3,14(4H,12H)-dione, 10-amino-4-ethyl-4-hydroxy-, (S)-]",–,–,Maximum tolerated dose ([1]; in vivo): dose = 45 mug/square metre/hr
"Cc1ccc(-c2cc(C(F)(F)F)nn2-c2ccc(S(N)(=O)=O)cc2)cc1 [Celecoxib, 4-[5-(4-methylphenyl)-3-(trifluoromethyl)-1H-pyrazol-1-yl]-benzenesulfonamide]",–,–,size of the metastatic lesions in the lung (Lewis Lung tumor cells; histopathological analysis): dose-dependently reduces the size of the metastasic lesions in the lung; effect on lung metastasis (Lewis Lung tumor cells; lower dose of 160 ppm in the diet): does not affect lung metastasis
"CSc1ccc2c(c1)C=C(C(=O)O)C(C(F)(F)F)O2 (stereo not shown) [Example 2, 6-(Methylthio)-2-(trifluoromethyl)-2H-1-benzopyran-3-carboxylic acid]",–,166.3 to 167.9,–
"O=C(O)C1=Cc2cc(Cl)ccc2O[C@@H]1C(F)(F)F [Example 2, (S)-6-Chloro-2-trifluoromethyl-2H-1-benzopyran-3-carboxylic acid]",–,126.7 to 128.9,–
"O=Cc1ccc2c(c1)C=C(C(=O)O)C(C(F)(F)F)O2 (stereo not shown) [Example 7, 6-Formyl-2-(trifluoromethyl)-2H-1-benzopyran-3-carboxylic acid]",> 500,211.3 to 215.7,–
"O=C(O)C1=Cc2cc(C(F)F)ccc2OC1C(F)(F)F (stereo not shown) [Example 8, 6-(Difluoromethyl)-2-(trifluoromethyl)-2H-1-benzopyran-3-carboxylic acid]",–,134.7 to 136.2,–
"O=C(O)C1=Cc2cc(Cl)cc(Cl)c2NC1C(F)(F)F (stereo not shown) [Example 14, 6,8-Dichloro-1,2-dihydro-2-(trifluoromethyl)-3-quinolinecarboxylic acid]",9.7,223.4 to 225.7,IC50 (COX-2): 0.2 µM
"CC(C)(C)c1ccc2c(c1)OC(C(F)(F)F)C(C(=O)O)=C2 (stereo not shown) [Example 15, 7-(1,1-Dimethylethyl)-2-trifluoromethyl-2H-1-benzopyran-3-carboxylic acid]",57,165.6 to 166.8,IC50 (COX-2): 3.6 µM
"O=C(O)C1=Cc2cc(Cl)c(Cl)cc2OC1C(F)(F)F (stereo not shown) [Example 16, 6,7-Dichloro-2-trifluoromethyl-2H-1-benzopyran-3-carboxylic acid]",94.6,196.1 to 198.3,–
"O=C(O)C1=Cc2cc(C(F)(F)F)ccc2OC1C(F)(F)F (stereo not shown) [Example 18, 2,6-Bis(trifluoromethyl)-2H-1-benzopyran-3-carboxylic acid]",–,143.5 to 145.2,–
"Cc1cc2c(cc1Cl)C=C(C(=O)O)C(C(F)(F)F)S2 (stereo not shown) [Example 23, 6-Chloro-7-methyl-2-(trifluoromethyl)-2H-1-benzothiopyran-3-carboxylic acid]",365,240.5 to 241.7,–
"O=C(O)C1=Cc2cc(Cl)cc(Cl)c2SC1C(F)(F)F (stereo not shown) [Example 24, 6,8-Dichloro-2-trifluoromethyl-2H-1-benzothiopyran-3-carboxylic acid]",0.2,–,–
"CCc1c2c(nc3ccc(OC(=O)N4CCC(N5CCCCC5)CC4)cc13)-c1cc3c(c(=O)n1C2)COC(=O)[C@]3(O)CC.Cl [Irinotecan hydrochloride, (4S)-4,11-diethyl-4-hydroxy-9-((4-piperidinopiperidino)carbonyloxy)-1H-pyrano(3′,4′:6,7)indolizino(1,2-b)quinoline-3,14(4H,12H)dione hydrochloride]",–,–,Lethality in mice [2]: mice: 111 mg/kg; Lethality in rats [3]: in rats: 73 mg/kg
"O=C1c2c(c3c4ccc(O)cc4n([C@@H]4O[C@H](CO)[C@@H](O)[C@H](O)[C@H]4O)c3c3[nH]c4cc(O)ccc4c23)C(=O)N1NC(CO)CO [J 107088, 5H-Indolo[2,3-a]pyrrolo[3,4-c]carbazole-5,7(6H)-dione, 12-β-D-glucopyranosyl-12,13-dihydro-2,10-dihydroxy-6-[[2-hydroxy-1-(hydroxymethyl)ethyl]amino]-]",–,–,Maximum tolerated dose ([1]; in vivo): 7.5 mg/m2
"CC[C@@]1(O)C(=O)OCc2c1cc1n(c2=O)Cc2cc3c(CN(C)C)c(O)ccc3nc2-1 [Topotecan hydrochloride, (S)-10-((dimethylamino)methyl)-4-ethyl-4,9-dihydroxy-1H-pyrano(3′,4′:6,7)indolizino(1,2-B)quinoline-3,14-(4H,12H)-dione monohydrochloride]",–,–,"LD10 ([2]; mice, single IV infusion): 75 mg/m^2"
"CC[C@@]1(O)C(=O)OCc2c1cc1n(c2=O)Cc2cc3c(CN(C)C)c(O)ccc3nc2-1 [Topotecan, 1H-Pyrano[3′,4′:6,7]indolizino[1,2-b]quinoline-3,14(4,H,12H)-dione, 10-[(dimethylamino)methyl]-4-ethyl-4,9-dihydroxy-, (S)-]",–,–,Maximally tolerated dose ([1]; × 5 d every 3 to 4 wk): dose: 1.5 mg/m^2
C[C@H](CCC(=O)O)[C@H]1CC[C@H]2[C@@H]3[C@@H](O)C[C@@H]4C[C@H](O)CC[C@]4(C)[C@H]3CC[C@]12C [URSO],–,–,tolerability and toxicity [4]: extremely well tolerated and without toxicity
"CC[C@@]1(O)C(=O)OCc2c1cc1n(c2=O)Cc2cc3c([N+](=O)[O-])cccc3nc2-1 [rubitecan, 1H-Pyrano[3′,4′:6,7]indolizino[1,2-b]quinoline-3,14(4H,12H)-dione, -4-ethyl-4-hydroxy-10-nitro-, (S)-]",–,–,"grade 4 anemia ([1]; % of patients): 29% of; grade 4 thrombocytopenia ([1]; % of patients): penia in 18%.; chemical cystitis, Grade 2 or higher ([1]; occurred at each dose level): (25%),; diarrhea, Grade 2 or higher ([1]; occurred at each dose level): (32%),; nausea and vomiting, Grade 2 or higher ([1]; occurred at each dose level): (54%),; neutropenic sepsis, Grade 2 or higher ([1]; occurred at each dose level): sepsis (21%),; weight loss, Grade 2 or higher ([1]; occurred at each dose level): loss (18%).; Maximum tolerated dose ([1]; over five consecutive days repeated every week): 1.5 mg/ mg/m2/day"
